Source: patent US20230101747A1 (Schrödinger, Inc., priority 2019, published 2023)

Each molecule was assayed against T1, Full length human CDC7 protein co-expressed with DBF4 (Homo sapiens, UniProt O00311) (assay: CDC7 kinase biochemical assay (ADP-Glo, PDKtide substrate)). Conditions: 0.1 nM CDC7/DBF4, 1 uM ATP, 10 uM PDKtide, 4 h; read-out: CDC7 ADP-Glo PDKtide IC50.
T1 construct: Full length human CDC7 protein co-expressed with DBF4; purchased SignalChem (China)
Protocol: CDC7 Kinase Biochemical Assay Protocol:
Full length human CDC7 protein co-expressed with DBF4 was purchased from SignalChem (China). CDC7 kinase activity was determined with PDKtide (SignalChem) as a substrate and by measuring ADP production using the ADP-Glo™ Kinase Assay kit (Promega) following the manufacturers instructions. The kinase reaction was performed using the following conditions: Buffer: 40 mM Tris pH 7.5, 20 mM MgCl2, 0.1 mg/ml BSA and 50 uM DTT. Final reaction mix contained 0.1 nM CDC7/DBF4, 1 uM ATP and 10 uM PDKtide. The kinase reaction time was 4 h. The ADP-Glo signal was measured using an EnVision plate reader (PerkinELmer).
Percent inhibition of CDC7 kinase activity was calculated based on the following formula: […]
SSample: the signal of compounds SHigh ctrl: the signal of high control (DMSO) SLow Ctrl: the signal of low control (positive control CDC7 inhibitor)

T1 sequence (O00311 whole entry): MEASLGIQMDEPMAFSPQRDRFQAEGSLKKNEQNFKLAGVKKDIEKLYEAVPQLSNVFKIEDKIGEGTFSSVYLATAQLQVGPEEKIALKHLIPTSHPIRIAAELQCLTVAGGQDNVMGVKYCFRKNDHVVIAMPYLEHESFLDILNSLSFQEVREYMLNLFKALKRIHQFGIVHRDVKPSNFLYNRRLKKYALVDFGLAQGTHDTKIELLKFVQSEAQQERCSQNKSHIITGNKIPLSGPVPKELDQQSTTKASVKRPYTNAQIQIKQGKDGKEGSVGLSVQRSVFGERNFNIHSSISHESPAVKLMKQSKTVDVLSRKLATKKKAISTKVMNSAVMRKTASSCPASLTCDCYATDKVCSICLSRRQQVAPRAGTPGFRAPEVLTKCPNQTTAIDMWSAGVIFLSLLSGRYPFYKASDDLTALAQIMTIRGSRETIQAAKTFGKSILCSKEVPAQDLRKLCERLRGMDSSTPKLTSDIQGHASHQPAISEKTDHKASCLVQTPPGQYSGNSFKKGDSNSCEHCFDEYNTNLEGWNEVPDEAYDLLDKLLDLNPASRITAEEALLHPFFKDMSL
T1 sequence (Q9UBU7 whole entry partner): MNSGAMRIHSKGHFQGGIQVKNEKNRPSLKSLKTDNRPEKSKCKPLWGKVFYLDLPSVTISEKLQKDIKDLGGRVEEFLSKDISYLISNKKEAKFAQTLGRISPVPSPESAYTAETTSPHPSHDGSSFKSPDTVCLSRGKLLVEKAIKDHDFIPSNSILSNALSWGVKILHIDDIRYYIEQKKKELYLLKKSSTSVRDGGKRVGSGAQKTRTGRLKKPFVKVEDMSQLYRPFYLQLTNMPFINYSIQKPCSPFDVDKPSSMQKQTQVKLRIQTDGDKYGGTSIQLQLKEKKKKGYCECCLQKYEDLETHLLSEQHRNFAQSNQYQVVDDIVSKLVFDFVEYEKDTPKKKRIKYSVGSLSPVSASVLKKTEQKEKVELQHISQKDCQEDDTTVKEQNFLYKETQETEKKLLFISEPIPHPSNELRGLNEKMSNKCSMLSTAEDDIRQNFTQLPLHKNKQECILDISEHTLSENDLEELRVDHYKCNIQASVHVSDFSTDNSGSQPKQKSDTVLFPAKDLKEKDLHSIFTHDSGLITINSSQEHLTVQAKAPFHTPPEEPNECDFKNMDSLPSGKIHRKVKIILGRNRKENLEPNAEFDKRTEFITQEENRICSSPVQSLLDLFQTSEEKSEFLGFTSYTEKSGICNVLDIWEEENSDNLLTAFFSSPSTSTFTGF

Compound	IC50 [nM]
O=C1NC(C2CC(F)(F)C2)CN2CC(F)Cc3c(-c4cn[nH]c4)sc1c32 (single isomer, unassigned) [Compound 127, 7-(3,3-difluorocyclobutyl)-4-fluoro-2-(1H-pyrazol-4-yl)-4,5,7,8-tetrahydro-3H-1-thia-5a,8-diazabenzo[cd]azulen-9(6H)-one]	< 1
O=C1NC(C2CC(F)(F)C2)CN2CC(F)Cc3c(-c4cn[nH]c4)sc1c32 (single isomer, unassigned) [Compound 129, 7-(3,3-difluorocyclobutyl)-4-fluoro-2-(1H-pyrazol-4-yl)-4,5,7,8-tetrahydro-3H-1-thia-5a,8-diazabenzo[cd]azulen-9(6H)-one]	< 1
O=C1NC(C2CC(F)(F)C2)CN2CC(F)Cc3c(-c4cn[nH]c4)sc1c32 (single isomer, unassigned) [Compound 130, 7-(3,3-difluorocyclobutyl)-4-fluoro-2-(1H-pyrazol-4-yl)-4,5,7,8-tetrahydro-3H-1-thia-5a,8-diazabenzo[cd]azulen-9(6H)-one]	< 1
O=C1N[C@H](C2CCCCO2)CN2CC(F)(F)Cc3c(-c4cn[nH]c4)sc1c32 (single isomer, unassigned) [Compound 137]	> 10
CC1(C)NC(=O)c2sc(-c3ccncn3)c3c2N1CCCN3 [Compound 1, 5,5-dimethyl-1-(pyrimidin-4-yl)-4,5,6,7,8,9-hexahydro-3H-2-thia-4,5a,9-triazabenzo[cd]azulen-3-one]	< 1
CC1(C)NC(=O)c2sc(-c3ccncc3)c3c2N1CCCO3 [Compound 3, 5,5-Dimethyl-1-(pyridin-4-yl)-4,5,7,8-tetrahydro-3H,6H-9-oxa-2-thia-4,5a-diazabenzo[cd]azulen-3-one]	< 1
CC1(C)NC(=O)c2sc(-c3c[nH]c4ncncc34)c3c2N1CCO3 [Compound 4, 6,6-dimethyl-2-(7H-pyrrolo[2,3-d]pyrimidin-5-yl)-4,5,6,7-tetrahydro-8H-3-oxa-1-thia-5a,7-diazaacenaphthylen-8-one]	1 to 10
CC1(C)NC(=O)c2sc(-c3ccnc4ccoc34)c3c2N1CCO3 [Compound 7, 2-(furo[3,2-b]pyridin-7-yl)-6,6-dimethyl-4,5,6,7-tetrahydro-8H-3-oxa-1-thia-5a,7-diazaacenaphthylen-8-one]	> 10
CC1(C)NC(=O)c2sc(-c3c[nH]c4ncccc34)c3c2N1CCO3 [Compound 9, 6,6-dimethyl-2-(1H-pyrrolo[2,3-b]pyridin-3-yl)-4,5,6,7-tetrahydro-8H-3-oxa-1-thia-5a,7-diazaacenaphthylen-8-one]	1 to 10
CC1(C)NC(=O)c2sc(-c3c[nH]c4ncc(Cl)cc34)c3c2N1CCO3 [Compound 10, 2-(5-chloro-1H-pyrrolo[2,3-b]pyridin-3-yl)-6,6-dimethyl-4,5,6,7-tetrahydro-8H-3-oxa-1-thia-5a,7-diazaacenaphthylen-8-one]	1 to 10
CC1(C)NC(=O)c2sc(-c3ccnc(N)n3)c3c2N1CCO3 [Compound 11, 2-(2-aminopyrimidin-4-yl)-6,6-dimethyl-4,5,6,7-tetrahydro-8H-3-oxa-1-thia-5a,7-diazaacenaphthylen-8-one]	1 to 10
CC1(C)NC(=O)c2sc(-c3ccnc(N)c3)c3c2N1CCO3 [Compound 13, 2-(2-aminopyridin-4-yl)-6,6-dimethyl-4,5,6,7-tetrahydro-8H-3-oxa-1-thia-5a,7-diazaacenaphthylen-8-one]	1 to 10
CC1(C)NC(=O)c2sc(-c3ccnc4[nH]ccc34)c3c2N1CCO3 [Compound 14, 6,6-dimethyl-2-(1H-pyrrolo[2,3-b]pyridin-4-yl)-4,5,6,7-tetrahydro-8H-3-oxa-1-thia-5a,7-diazaacenaphthylen-8-one]	1 to 10
C[C@H]1CN2CCOc3c(-c4ccncc4)sc(c32)C(=O)N1 [Compound 15, (S)-7-methyl-2-(pyridin-4-yl)-4,5,7,8-tetrahydro-3-oxa-1-thia-5a,8-diazabenzo[cd]azulen-9(6H)-one]	< 1
Cc1n[nH]cc1-c1sc2c3c1OCCN3C[C@H](C)NC2=O [Compound 17]	1 to 10
C[C@H]1CN2CCOc3c(-c4ccnc5[nH]ccc45)sc(c32)C(=O)N1 [Compound 18, (S)-7-methyl-2-(1H-pyrrolo[2,3-b]pyridin-4-yl)-4,5,7,8-tetrahydro-3-oxa-1-thia-5a,8-diazabenzo[cd]azulen-9(6H)-one]	< 1
C[C@H]1CN2C(=O)COc3c(-c4cn[nH]c4)sc(c32)C(=O)N1 [Compound 20, (S)-7-methyl-2-(1H-pyrazol-4-yl)-7,8-dihydro-3-oxa-1-thia-5a,8-diazabenzo[cd]azulene-5,9(4H,6H)-dione]	< 1
C[C@H]1CNC(=O)c2sc(-c3cn[nH]c3)c3c2N1CCO3 [Compound 25, (S)-6-methyl-2-(1H-pyrazol-4-yl)-4,5,7,8-tetrahydro-3-oxa-1-thia-5a,8-diazabenzo[cd]azulen-9(6H)-one]	< 1
O=C1NCC(C2CCOCC2)N2CCOc3c(-c4cn[nH]c4)sc1c32 (centres unmarked) [Compound 26, 2-(1H-pyrazol-4-yl)-6-(tetrahydro-2H-pyran-4-yl)-4,5,7,8-tetrahydro-3-oxa-1-thia-5a,8-diazabenzo[cd]azulen-9(6H)-one]	< 1
C[C@H]1CN2CCCc3c(-c4ccncc4)sc(c32)C(=O)N1 [Compound 31, (S)-7-methyl-2-(pyridin-4-yl)-4,5,7,8-tetrahydro-3H-1-thia-5a,8-diazabenzo[cd]azulen-9(6H)-one]	1 to 10

Continued, values first:

IC50 [nM]	Compound
1 to 10	O=C1NC(C2CC(F)(F)C2)CN2CC(F)Cc3c(-c4cn[nH]c4)sc1c32 (single isomer, unassigned) [Compound 128, 7-(3,3-difluorocyclobutyl)-4-fluoro-2-(1H-pyrazol-4-yl)-4,5,7,8-tetrahydro-3H-1-thia-5a,8-diazabenzo[cd]azulen-9(6H)-one]
1 to 10	O=C1N[C@H](C2CCCCO2)CN2CC(F)(F)Cc3c(-c4cn[nH]c4)sc1c32 (single isomer, unassigned) [Compound 138]
< 1	O=C1N[C@@H](C2CCCCO2)CN2CC(F)(F)Cc3c(-c4cn[nH]c4)sc1c32 (single isomer, unassigned) [Compound 139]
< 1	O=C1N[C@@H]([C@@H]2CCCCO2)CN2CC(F)(F)Cc3c(-c4cn[nH]c4)sc1c32 (single isomer, unassigned) [Compound 140]
< 1	CC1(C)NC(=O)c2sc(-c3ccncc3)c3c2N1CCO3 [Compound 2, 6,6-dimethyl-2-(pyridin-4-yl)-4,5,6,7-tetrahydro-8H-3-oxa-1-thia-5a,7-diazaacenaphthylen-8-one]
> 10	CC1(C)NC(=O)c2sc(-c3ccncn3)c3c2N1CCO3 [Compound 5, 6,6-Dimethyl-2-(pyrimidin-4-yl)-4,5,6,7-tetrahydro-8H-3-oxa-1-thia-5a,7-diazaacenaphthylen-8-one]
1 to 10	Cc1[nH]ncc1-c1sc2c3c1OCCN3C(C)(C)NC2=O [Compound 6, 6,6-dimethyl-2-(5-methyl-1H-pyrazol-4-yl)-4,5,6,7-tetrahydro-8H-3-oxa-1-thia-5a,7-diazaacenaphthylen-8-one]
1 to 10	CC1(C)NC(=O)c2sc(-c3ccnc4[nH]ncc34)c3c2N1CCO3 [Compound 8, 6,6-dimethyl-2-(1H-pyrazolo[3,4-b]pyridin-4-yl)-4,5,6,7-tetrahydro-8H-3-oxa-1-thia-5a,7-diazaacenaphthylen-8-one]
< 1	CC1(C)NC(=O)c2sc(-c3cn[nH]c3)c3c2N1CCO3 [Compound 12, 6,6-dimethyl-2-(1H-pyrazol-4-yl)-4,5,6,7-tetrahydro-8H-3-oxa-1-thia-5a,7-diazaacenaphthylen-8-one]
1 to 10	C[C@@H]1CNC(=O)c2sc(-c3ccncc3)c3c2N1C(=O)CO3 [Compound 22, (R)-6-methyl-2-(pyridin-4-yl)-7,8-dihydro-3-oxa-1-thia-5a,8-diazabenzo[cd]azulene-5,9(4H,6H)-dione]
1 to 10	C[C@H]1CNC(=O)c2sc(-c3ccncc3)c3c2N1CCO3 [Compound 24, (S)-6-methyl-2-(pyridin-4-yl)-4,5,7,8-tetrahydro-3-oxa-1-thia-5a,8-diazabenzo[cd]azulen-9(6H)-one]
1 to 10	C[C@H]1CN2C(=O)CCc3c(-c4cn[nH]c4)sc(c32)C(=O)N1 [Compound 29, (S)-7-methyl-2-(1H-pyrazol-4-yl)-3,4,7,8-tetrahydro-5H-1-thia-5a,8-diazabenzo[cd]azulene-5,9(6H)-dione]
< 1	O=C1NC[C@@H](CO)N2CCOc3c(-c4cn[nH]c4)sc1c32 [Compound 34, (S)-6-(hydroxymethyl)-2-(1H-pyrazol-4-yl)-4,5,7,8-tetrahydro-3-oxa-1-thia-5a,8-diazabenzo[cd]azulen-9(6H)-one]

Same assay, conditions: CDC7 ADP-Glo PDKtide IC50, 0.1 nM CDC7/DBF4, 1 uM ATP, 10 uM PDKtide, 4 h

Compound	IC50 [nM]
O=C1N[C@H](C2CCC2)CN2C(=O)COc3c(-c4cn[nH]c4)sc1c32 [Compound 21, (R)-7-cyclobutyl-2-(1H-pyrazol-4-yl)-7,8-dihydro-3-oxa-1-thia-5a,8-diazabenzo[cd]azulene-5,9(4H,6H)-dione]	1 to 10
O=C1N[C@@H](C2CCC2)C(=O)N2CCOc3c(-c4cn[nH]c4)sc1c32 [Compound 23, (S)-7-cyclobutyl-2-(1H-pyrazol-4-yl)-4,5,7,8-tetrahydro-3-oxa-1-thia-5a,8-diazabenzo[cd] azulene-6,9-dione]	> 10
